System: Myotonic Dystrophy 1 affected patient fibroblasts (Coriel GM04602; 1600 CTG repeats)
Assay: DM1 foci reduction assay (EC50 assay; CAG10-Cy3 FISH, foci per nucleus)
Type: cell-based
Conditions: Homo sapiens, Fibroblast; DM1 patient fibroblasts, 48 h treatment, foci per nucleus; read-out: DM1 EC50, 48 h
Outline: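 GM04602 DM1 patient fibroblasts (1600 CTG repeats) seeded 24 h, then treated 48 h at 37 °C with an 8-point 1:3 dose series from 3 μM. Cells PFA-fixed, ethanol-permeabilized and hybridized overnight with 5 nM CAG10-Cy3 probe, DAPI counterstained. Imaged at 20×, 4 fields per well, as average foci per nucleus.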

Compound | EC50 [nM]
Cn1cc(NC(=O)c2nc(NC(=O)CCNC(=O)c3cc(NC(=O)c4nccn4C)cn3C)cn2C)cc1C(=O)NCCCC(=O)Nc1cn(C)c(C(=O)NCCC(=O)Nc2cc(C(=O)Nc3cn(C)c(C(=O)NCCOCCOCCOc4cccc(C(=O)O)c4)n3)n(C)c2)n1 [Compound B-214] | 500 to 1000
CN(CCCCCc1cccc(C(=O)O)c1)CCCNC(=O)c1nc(NC(=O)c2cc(NC(=O)CCNC(=O)c3nc(NC(=O)CCCNC(=O)c4cc(NC(=O)c5nc(NC(=O)CCNC(=O)c6cc(NC(=O)c7nccn7C)cn6C)cn5C)cn4C)cn3C)cn2C)cn1C [Compound B-215] | 100 to 500
Cn1cc(NC(=O)c2nc(NC(=O)CCNC(=O)c3cc(NC(=O)c4nccn4C)cn3C)cn2C)cc1C(=O)NCCCC(=O)Nc1cn(C)c(C(=O)NCCC(=O)Nc2cc(C(=O)Nc3cn(C)c(C(=O)NCCOCCOCCOc4cncc(C(=O)O)c4)n3)n(C)c2)n1 [Compound B-216] | > 1000
Cn1cc(NC(=O)c2nc(NC(=O)CCNC(=O)c3cc(NC(=O)c4nccn4C)cn3C)cn2C)cc1C(=O)NCCCC(=O)Nc1cn(C)c(C(=O)NCCC(=O)Nc2cc(C(=O)Nc3cn(C)c(C(=O)NCCCCNc4cccc(C(=O)O)c4)n3)n(C)c2)n1 [Compound B-218] | 100 to 500
CCN(CC)CCCC[C@H](NC(=O)c1ccccc1)C(=O)NCCOCCOCCOCCOCCOCCNC(=O)c1nc(NC(=O)c2cc(NC(=O)CCNC(=O)c3nc(NC(=O)CCCNC(=O)c4cc(NC(=O)c5nc(NC(=O)CCNC(=O)c6cc(NC(=O)c7nccn7C)cn6C)cn5C)cn4C)cn3C)cn2C)cn1C [Compound B-219] | 500 to 1000
CCN(CC)CCCC[C@H](NC(=O)c1cccc(C(=O)O)c1)C(=O)NCCOCCOCCOCCOCCOCCNC(=O)c1nc(NC(=O)c2cc(NC(=O)CCNC(=O)c3nc(NC(=O)CCCNC(=O)c4cc(NC(=O)c5nc(NC(=O)CCNC(=O)c6cc(NC(=O)c7nccn7C)cn6C)cn5C)cn4C)cn3C)cn2C)cn1C [Compound B-220] | > 1000
CCN(CC)CCCC[C@H](NC(=O)c1cccc(C(=O)O)c1)C(=O)NCCOCCOCCOCCNC(=O)c1nc(NC(=O)c2cc(NC(=O)CCNC(=O)c3nc(NC(=O)CCCNC(=O)c4cc(NC(=O)c5nc(NC(=O)CCNC(=O)c6cc(NC(=O)c7nccn7C)cn6C)cn5C)cn4C)cn3C)cn2C)cn1C [Compound B-221] | > 1000
CCN(CC)CCCC[C@H](NC(=O)c1cccc(C(=O)O)c1)C(=O)NCCOCCOCCOCCOCCOCCNC(=O)CCNC(=O)c1nc(NC(=O)c2cc(NC(=O)CCNC(=O)c3nc(NC(=O)CCCNC(=O)c4cc(NC(=O)c5nc(NC(=O)CCNC(=O)c6cc(NC(=O)c7nccn7C)cn6C)cn5C)cn4C)cn3C)cn2C)cn1C [Compound B-222] | 500 to 1000
CCN(CC)CCCC[C@H](NC(=O)c1cccc(C(=O)O)c1)C(=O)NCCOCCOCCOCCNC(=O)CCNC(=O)c1nc(NC(=O)c2cc(NC(=O)CCNC(=O)c3nc(NC(=O)CCCNC(=O)c4cc(NC(=O)c5nc(NC(=O)CCNC(=O)c6cc(NC(=O)c7nccn7C)cn6C)cn5C)cn4C)cn3C)cn2C)cn1C [Compound B-223] | > 1000
Cn1cc(NC(=O)c2nc(NC(=O)CCNC(=O)c3cc(NC(=O)c4nccn4C)cn3C)cn2C)cc1C(=O)NCCCC(=O)Nc1cn(C)c(C(=O)NCCC(=O)Nc2cc(C(=O)Nc3cn(C)c(C(=O)NCCC(=O)N4CCC(C#CC#CC5CCN(CCCNC(=O)c6cccc(C(=O)O)c6)CC5)CC4)n3)n(C)c2)n1 [Compound B-225] | 100 to 500
CCCNC(=O)c1nc(NC(=O)c2cc(NC(=O)CCNC(=O)c3nc(NC(=O)CCCNC(=O)c4cc(NC(=O)c5nc(NC(=O)CCNC(=O)c6cc(NC(=O)c7nccn7C)cn6C)cn5C)cn4CCCCCCN=[N+]=[N-])cn3C)cn2C)cn1C [Compound B-231] | 100 to 500
CCCNC(=O)CCNC(=O)c1nc(NC(=O)c2cc(NC(=O)CCNC(=O)c3nc(NC(=O)CCCNC(=O)c4cc(NC(=O)c5nc(NC(=O)CCNC(=O)c6cc(NC(=O)c7nccn7C)cn6C)cn5C)cn4CCCCCCNC(=O)CCOCCOCCOCCOCCOCCOC)cn3C)cn2C)cn1C [Compound B-238] | 100 to 500
COCCOCCOCCOCCN(CCOCCOCCOCCOC)C(=O)CCCCn1cc(NC(=O)c2nc(NC(=O)CCNC(=O)c3cc(NC(=O)c4nccn4C)cn3C)cn2C)cc1C(=O)NCCCC(=O)Nc1cn(C)c(C(=O)NCCC(=O)Nc2cc(C(=O)Nc3cn(C)c(C(=O)NCCC(=O)N4CCC(N5CCN(C(=O)OC(C)(C)C)CC5)CC4)n3)n(C)c2)n1 [Compound B-242] | > 1000
Cn1cnc(NC(=O)c2cc(NC(=O)CCNC(=O)c3nc(NC(=O)CCCNC(=O)c4cc(NC(=O)c5nc(NC(=O)CCNC(=O)c6cc(NC(=O)c7nccn7C)cn6C)cn5C)cn4C)cn3C)cn2C)c1 [Compound B-243] | > 1000
Cn1cc(NC(=O)c2nc(NC(=O)CCNC(=O)c3cc(NC(=O)c4nccn4C)cn3C)cn2C)cc1C(=O)NCCCC(=O)Nc1cn(C)c(C(=O)NCCC(=O)Nc2cc(C(=O)Nc3cn(C)c(C(=O)NCCCN4CCC(C#CC#CC5CCNCC5)CC4)n3)n(C)c2)n1 [Compound B-250] | 100 to 500
Cn1cnc(NC(=O)c2cc(NC(=O)CCNC(=O)c3nc(NC(=O)CCCNC(=O)c4cc(NC(=O)c5nc(NC(=O)CCNC(=O)c6cc(NC(=O)c7nccn7C)cn6C)cn5C)cn4CCCCCCN=[N+]=[N-])cn3C)cn2C)c1 [Compound B-252] | > 1000
CN(C)CCCNC(=O)c1cc(NC(=O)CCNC(=O)c2nc(NC(=O)CCCNC(=O)c3cc(NC(=O)c4nc(NC(=O)CCNC(=O)c5cc(NC(=O)c6nccn6C)cn5C)cn4C)cn3CCCCCCN=[N+]=[N-])cn2C)cn1C [Compound B-254] | > 1000
COCCOCCOCCOCCN(CCOCCOCCOCCOC)C(=O)CCCCn1cc(NC(=O)c2nc(NC(=O)CCNC(=O)c3cc(NC(=O)c4nccn4C)cn3C)cn2C)cc1C(=O)NCCCC(=O)Nc1cn(C)c(C(=O)NCCC(=O)Nc2cc(C(=O)Nc3cn(C)c(C(=O)NCCC(=O)N4CCC(C#CC#CC5CCN(C(C)=O)CC5)CC4)n3)n(C)c2)n1 [Compound B-259] | > 1000
CCCCCNC(=O)CCNC(=O)c1nc(NC(=O)c2cc(NC(=O)CCNC(=O)c3nc(NC(=O)CCCNC(=O)c4cc(NC(=O)c5nc(NC(=O)CCNC(=O)c6cc(NC(=O)c7nccn7C)cn6C)cn5C)cn4CCCCC(=O)N(CCOCCOCCOCCOC)CCOCCOCCOCCOC)cn3C)cn2C)cn1C [Compound B-261] | 100 to 500
Cn1cc(NC(=O)c2nc(NC(=O)CCNC(=O)c3cc(NC(=O)c4nccn4C)cn3C)cn2C)cc1C(=O)NCCCC(=O)Nc1cn(C)c(C(=O)NCCC(=O)Nc2cc(C(=O)Nc3cn(C)c(C(=O)NCCC(=O)N4CCC(CC5CC[N+](C)(C)CC5)CC4)n3)n(C)c2)n1 [Compound B-262] | > 1000
CCCNC(=O)CCNC(=O)c1nc(NC(=O)c2cc(NC(=O)CCNC(=O)c3nc(NC(=O)CCCNC(=O)c4cc(NC(=O)c5nc(NC(=O)CCNC(=O)c6cc(NC(=O)c7nccn7C)cn6C)cn5C)cn4CCCCCCNC(C)=O)cn3C)cn2C)cn1C [Compound B-292] | < 100
CC(=O)NCCCCCCn1cc(NC(=O)c2nc(NC(=O)CCNC(=O)c3cc(NC(=O)c4nccn4C)cn3C)cn2C)cc1C(=O)NCCCC(=O)Nc1cn(C)c(C(=O)NCCC(=O)Nc2cc(C(=O)Nc3cn(C)c(C(=O)NCCC(=O)N4CCC(C#CC#CC5CCNCC5)CC4)n3)n(C)c2)n1 [Compound B-294] | < 100
CN(C)C(=O)c1nc(NC(=O)c2cc(NC(=O)CCNC(=O)c3nc(NC(=O)CCCNC(=O)c4cc(NC(=O)c5nc(NC(=O)CCNC(=O)c6cc(NC(=O)c7nccn7C)cn6C)cn5C)cn4C)cn3C)cn2C)cn1C [Compound B-314] | > 1000

Source: patent US20250368628A1, “METHODS AND COMPOUNDS FOR MODULATING INHERITED GENETIC DISEASES” (Design Therapeutics, Inc., priority 2022, published 2025)
